Data: ChEMBL document CHEMBL4715770, “Inhibition of Low Molecular Weight Protein Tyrosine Phosphatase by an Induced-Fit Mechanism” (J Med Chem, 2016)

Key:
[1] = target: T1, Tyrosine-protein phosphatase non-receptor type 1 (Homo sapiens, UniProt P18031); test: Inhibition of His-tagged PTP1B (unknown origin) expressed in Escherichia coli BL21 cells using para-nitrophenyl phosphate as substrate incubated for 5 to 10 mins by microplate reader based spectrophotometric analysis
T1 sequence (P18031 whole entry): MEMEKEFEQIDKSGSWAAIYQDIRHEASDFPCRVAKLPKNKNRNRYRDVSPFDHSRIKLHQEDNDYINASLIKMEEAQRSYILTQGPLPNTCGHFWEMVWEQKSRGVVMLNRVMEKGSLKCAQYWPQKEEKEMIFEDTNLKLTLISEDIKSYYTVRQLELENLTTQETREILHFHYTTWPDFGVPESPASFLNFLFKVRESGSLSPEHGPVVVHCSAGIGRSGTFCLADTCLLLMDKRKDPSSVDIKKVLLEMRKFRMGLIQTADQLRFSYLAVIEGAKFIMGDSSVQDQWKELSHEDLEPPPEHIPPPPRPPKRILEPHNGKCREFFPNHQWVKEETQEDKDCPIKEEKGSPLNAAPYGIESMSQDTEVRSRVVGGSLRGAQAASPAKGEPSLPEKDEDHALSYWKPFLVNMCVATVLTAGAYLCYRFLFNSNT

[2] = target: Receptor-type tyrosine-protein phosphatase F (Homo sapiens, UniProt P10586); test: Inhibition of His-tagged LAR (unknown origin) expressed in Escherichia coli BL21 cells using para-nitrophenyl phosphate as substrate incubated for 5 to 10 mins by microplate reader based spectrophotometric analysis
[3] = target: Receptor-type tyrosine-protein phosphatase gamma (Homo sapiens, UniProt P23470); test: Inhibition of His-tagged PTPgamma (unknown origin) expressed in Escherichia coli BL21 cells using para-nitrophenyl phosphate as substrate incubated for 5 to 10 mins by microplate reader based spectrophotometric analysis
Sequence of Receptor-type tyrosine-protein phosphatase gamma (P23470 whole entry): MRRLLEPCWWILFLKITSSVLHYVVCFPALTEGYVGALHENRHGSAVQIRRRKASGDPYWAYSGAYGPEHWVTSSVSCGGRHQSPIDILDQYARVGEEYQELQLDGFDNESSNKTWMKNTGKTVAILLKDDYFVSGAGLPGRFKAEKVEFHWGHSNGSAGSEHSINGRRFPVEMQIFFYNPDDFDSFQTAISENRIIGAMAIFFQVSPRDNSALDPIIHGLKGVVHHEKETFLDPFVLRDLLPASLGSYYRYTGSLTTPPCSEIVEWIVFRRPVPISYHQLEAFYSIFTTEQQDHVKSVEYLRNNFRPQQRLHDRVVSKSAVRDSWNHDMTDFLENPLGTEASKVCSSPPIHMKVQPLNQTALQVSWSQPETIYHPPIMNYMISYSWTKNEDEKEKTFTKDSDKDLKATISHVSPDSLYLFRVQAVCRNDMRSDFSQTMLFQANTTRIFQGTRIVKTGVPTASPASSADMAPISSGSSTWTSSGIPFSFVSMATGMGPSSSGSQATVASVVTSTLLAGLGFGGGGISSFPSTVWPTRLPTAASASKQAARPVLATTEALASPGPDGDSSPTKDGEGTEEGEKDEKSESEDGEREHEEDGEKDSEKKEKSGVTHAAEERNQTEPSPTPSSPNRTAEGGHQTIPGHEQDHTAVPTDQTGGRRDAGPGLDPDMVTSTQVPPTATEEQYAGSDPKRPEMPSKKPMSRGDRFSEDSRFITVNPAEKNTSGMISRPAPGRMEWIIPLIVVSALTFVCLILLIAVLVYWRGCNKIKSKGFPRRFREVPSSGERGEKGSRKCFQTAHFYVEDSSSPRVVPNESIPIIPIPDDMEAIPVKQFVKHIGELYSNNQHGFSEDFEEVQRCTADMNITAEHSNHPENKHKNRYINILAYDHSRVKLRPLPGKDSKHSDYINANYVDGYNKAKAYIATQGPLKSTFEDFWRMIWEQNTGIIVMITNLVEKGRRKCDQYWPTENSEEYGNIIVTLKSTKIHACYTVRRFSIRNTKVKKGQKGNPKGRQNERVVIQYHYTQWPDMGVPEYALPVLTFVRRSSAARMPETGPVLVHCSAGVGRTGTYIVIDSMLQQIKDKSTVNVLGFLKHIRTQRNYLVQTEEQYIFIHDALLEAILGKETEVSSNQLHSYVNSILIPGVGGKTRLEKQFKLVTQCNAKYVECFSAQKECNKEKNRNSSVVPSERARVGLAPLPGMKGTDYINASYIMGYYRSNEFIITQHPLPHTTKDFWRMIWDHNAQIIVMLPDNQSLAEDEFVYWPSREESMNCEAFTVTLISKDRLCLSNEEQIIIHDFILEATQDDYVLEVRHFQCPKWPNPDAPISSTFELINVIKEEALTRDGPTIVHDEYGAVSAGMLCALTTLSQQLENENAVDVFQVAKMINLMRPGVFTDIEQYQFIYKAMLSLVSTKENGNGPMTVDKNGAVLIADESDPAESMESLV

[4] = target: T2, Dual specificity protein phosphatase 23 (Homo sapiens, UniProt Q9BVJ7); test: Inhibition of His-tagged VHZ (unknown origin) expressed in Escherichia coli BL21 cells using para-nitrophenyl phosphate as substrate incubated for 5 to 10 mins by microplate reader based spectrophotometric analysis
T2 sequence (Q9BVJ7 whole entry): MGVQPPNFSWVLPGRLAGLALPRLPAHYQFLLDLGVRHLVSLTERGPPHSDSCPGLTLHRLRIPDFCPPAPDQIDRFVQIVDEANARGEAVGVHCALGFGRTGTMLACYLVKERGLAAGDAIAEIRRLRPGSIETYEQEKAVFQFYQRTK

[5] = target: T3, Dual specificity protein phosphatase CDC14A (Homo sapiens, UniProt Q9UNH5); test: Inhibition of His-tagged CDC14A (unknown origin) expressed in Escherichia coli BL21 cells using para-nitrophenyl phosphate as substrate incubated for 5 to 10 mins by microplate reader based spectrophotometric analysis
T3 sequence (Q9UNH5 whole entry): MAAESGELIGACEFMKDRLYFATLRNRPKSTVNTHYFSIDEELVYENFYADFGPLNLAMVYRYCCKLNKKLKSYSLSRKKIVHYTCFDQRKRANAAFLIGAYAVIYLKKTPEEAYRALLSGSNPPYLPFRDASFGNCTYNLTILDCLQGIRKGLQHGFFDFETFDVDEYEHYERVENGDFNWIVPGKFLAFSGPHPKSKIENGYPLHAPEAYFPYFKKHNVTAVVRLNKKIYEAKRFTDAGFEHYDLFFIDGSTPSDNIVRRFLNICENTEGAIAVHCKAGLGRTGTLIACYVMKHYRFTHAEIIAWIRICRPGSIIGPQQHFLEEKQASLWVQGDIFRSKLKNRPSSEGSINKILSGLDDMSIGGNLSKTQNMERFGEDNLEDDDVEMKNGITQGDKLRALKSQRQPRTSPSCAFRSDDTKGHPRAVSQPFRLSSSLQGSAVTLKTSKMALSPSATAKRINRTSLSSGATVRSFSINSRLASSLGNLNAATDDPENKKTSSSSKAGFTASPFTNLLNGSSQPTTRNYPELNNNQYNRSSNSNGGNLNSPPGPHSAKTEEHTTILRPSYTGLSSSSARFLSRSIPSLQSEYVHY

[6] = target: Receptor-type tyrosine-protein phosphatase alpha (Homo sapiens, UniProt P18433); test: Inhibition of His-tagged PTPalpha (unknown origin) expressed in Escherichia coli BL21 cells using para-nitrophenyl phosphate as substrate incubated for 5 to 10 mins by microplate reader based spectrophotometric analysis
Sequence of Receptor-type tyrosine-protein phosphatase alpha (P18433 whole entry): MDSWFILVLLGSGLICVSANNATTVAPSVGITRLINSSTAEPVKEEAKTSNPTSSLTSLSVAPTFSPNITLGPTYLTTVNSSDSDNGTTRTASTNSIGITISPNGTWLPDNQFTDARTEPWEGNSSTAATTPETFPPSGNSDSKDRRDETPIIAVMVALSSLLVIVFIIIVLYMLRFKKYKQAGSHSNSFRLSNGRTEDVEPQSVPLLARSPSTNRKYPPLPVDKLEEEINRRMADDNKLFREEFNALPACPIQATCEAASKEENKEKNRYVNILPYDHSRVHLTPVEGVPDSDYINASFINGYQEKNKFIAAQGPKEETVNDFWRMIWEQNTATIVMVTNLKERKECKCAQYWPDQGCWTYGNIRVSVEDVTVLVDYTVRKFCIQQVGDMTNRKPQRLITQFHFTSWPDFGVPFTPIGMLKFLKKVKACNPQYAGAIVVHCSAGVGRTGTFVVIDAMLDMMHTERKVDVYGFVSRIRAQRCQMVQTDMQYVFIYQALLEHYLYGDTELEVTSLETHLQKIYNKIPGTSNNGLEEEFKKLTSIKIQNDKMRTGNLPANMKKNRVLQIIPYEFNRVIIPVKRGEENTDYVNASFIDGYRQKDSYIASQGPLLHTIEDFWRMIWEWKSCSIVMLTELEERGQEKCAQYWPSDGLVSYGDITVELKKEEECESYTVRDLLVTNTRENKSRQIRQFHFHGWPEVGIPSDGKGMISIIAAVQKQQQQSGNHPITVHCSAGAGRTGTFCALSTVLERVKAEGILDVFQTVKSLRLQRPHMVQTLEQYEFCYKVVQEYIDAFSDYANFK

[7] = target: Tyrosine-protein phosphatase non-receptor type 13 (Homo sapiens, UniProt Q12923); test: Inhibition of His-tagged FAP1 (unknown origin) expressed in Escherichia coli BL21 cells using para-nitrophenyl phosphate as substrate incubated for 5 to 10 mins by microplate reader based spectrophotometric analysis
[8] = target: Dual specificity protein phosphatase 3 (Homo sapiens, UniProt P51452); test: Inhibition of His-tagged VHR (unknown origin) expressed in Escherichia coli BL21 cells using para-nitrophenyl phosphate as substrate incubated for 5 to 10 mins by microplate reader based spectrophotometric analysis
Sequence of Dual specificity protein phosphatase 3 (P51452 whole entry): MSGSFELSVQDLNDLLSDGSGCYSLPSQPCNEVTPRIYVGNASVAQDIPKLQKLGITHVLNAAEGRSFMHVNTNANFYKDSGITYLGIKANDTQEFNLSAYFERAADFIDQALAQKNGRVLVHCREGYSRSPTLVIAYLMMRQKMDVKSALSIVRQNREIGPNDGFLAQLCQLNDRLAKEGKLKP

[9] = target: Receptor-type tyrosine-protein phosphatase mu (Homo sapiens, UniProt P28827); test: Inhibition of His-tagged PTPmu (unknown origin) expressed in Escherichia coli BL21 cells using para-nitrophenyl phosphate as substrate incubated for 5 to 10 mins by microplate reader based spectrophotometric analysis
Sequence of Receptor-type tyrosine-protein phosphatase mu (P28827 whole entry): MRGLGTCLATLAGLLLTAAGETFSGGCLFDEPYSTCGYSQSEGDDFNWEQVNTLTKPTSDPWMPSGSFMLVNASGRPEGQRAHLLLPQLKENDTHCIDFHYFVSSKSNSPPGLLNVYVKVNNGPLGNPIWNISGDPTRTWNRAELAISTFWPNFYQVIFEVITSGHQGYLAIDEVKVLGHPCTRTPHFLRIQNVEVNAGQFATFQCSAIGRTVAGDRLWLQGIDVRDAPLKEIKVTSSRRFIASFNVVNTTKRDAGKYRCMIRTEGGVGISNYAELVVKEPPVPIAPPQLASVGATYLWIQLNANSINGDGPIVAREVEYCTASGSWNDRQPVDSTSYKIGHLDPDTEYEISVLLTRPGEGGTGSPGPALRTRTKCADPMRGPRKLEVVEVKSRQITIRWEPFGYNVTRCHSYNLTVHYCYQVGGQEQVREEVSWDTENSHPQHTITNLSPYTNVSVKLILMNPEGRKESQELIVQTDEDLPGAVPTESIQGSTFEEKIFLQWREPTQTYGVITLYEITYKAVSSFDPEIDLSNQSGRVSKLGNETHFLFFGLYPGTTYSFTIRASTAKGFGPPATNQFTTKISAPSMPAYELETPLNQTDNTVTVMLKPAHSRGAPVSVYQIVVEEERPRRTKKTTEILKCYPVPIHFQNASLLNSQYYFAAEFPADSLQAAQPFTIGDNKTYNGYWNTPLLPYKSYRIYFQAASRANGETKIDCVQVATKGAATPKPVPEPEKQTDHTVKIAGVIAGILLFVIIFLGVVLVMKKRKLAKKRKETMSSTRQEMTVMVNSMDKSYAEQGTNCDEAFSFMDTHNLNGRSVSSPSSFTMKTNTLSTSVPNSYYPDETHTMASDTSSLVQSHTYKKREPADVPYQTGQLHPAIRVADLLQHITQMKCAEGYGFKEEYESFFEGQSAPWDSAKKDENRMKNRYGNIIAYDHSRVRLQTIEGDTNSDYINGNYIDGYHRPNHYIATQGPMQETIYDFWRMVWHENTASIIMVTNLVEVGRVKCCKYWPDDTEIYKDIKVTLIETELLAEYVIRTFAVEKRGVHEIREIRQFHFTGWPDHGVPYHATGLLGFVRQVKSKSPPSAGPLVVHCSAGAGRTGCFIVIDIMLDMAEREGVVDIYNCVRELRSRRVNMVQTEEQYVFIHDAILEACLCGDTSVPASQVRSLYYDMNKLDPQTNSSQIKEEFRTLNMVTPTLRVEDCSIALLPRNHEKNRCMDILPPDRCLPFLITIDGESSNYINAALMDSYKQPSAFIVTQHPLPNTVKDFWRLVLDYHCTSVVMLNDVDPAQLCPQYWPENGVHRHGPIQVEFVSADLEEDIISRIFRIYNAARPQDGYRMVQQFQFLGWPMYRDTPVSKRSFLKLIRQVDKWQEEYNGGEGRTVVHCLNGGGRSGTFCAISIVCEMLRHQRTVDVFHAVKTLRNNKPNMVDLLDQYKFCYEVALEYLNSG

[10] = target: T4, Tyrosine-protein phosphatase non-receptor type 12 (Homo sapiens, UniProt Q05209); test: Inhibition of His-tagged PTP-PEST (unknown origin) expressed in Escherichia coli BL21 cells using para-nitrophenyl phosphate as substrate incubated for 5 to 10 mins by microplate reader based spectrophotometric analysis
T4 sequence (Q05209 whole entry): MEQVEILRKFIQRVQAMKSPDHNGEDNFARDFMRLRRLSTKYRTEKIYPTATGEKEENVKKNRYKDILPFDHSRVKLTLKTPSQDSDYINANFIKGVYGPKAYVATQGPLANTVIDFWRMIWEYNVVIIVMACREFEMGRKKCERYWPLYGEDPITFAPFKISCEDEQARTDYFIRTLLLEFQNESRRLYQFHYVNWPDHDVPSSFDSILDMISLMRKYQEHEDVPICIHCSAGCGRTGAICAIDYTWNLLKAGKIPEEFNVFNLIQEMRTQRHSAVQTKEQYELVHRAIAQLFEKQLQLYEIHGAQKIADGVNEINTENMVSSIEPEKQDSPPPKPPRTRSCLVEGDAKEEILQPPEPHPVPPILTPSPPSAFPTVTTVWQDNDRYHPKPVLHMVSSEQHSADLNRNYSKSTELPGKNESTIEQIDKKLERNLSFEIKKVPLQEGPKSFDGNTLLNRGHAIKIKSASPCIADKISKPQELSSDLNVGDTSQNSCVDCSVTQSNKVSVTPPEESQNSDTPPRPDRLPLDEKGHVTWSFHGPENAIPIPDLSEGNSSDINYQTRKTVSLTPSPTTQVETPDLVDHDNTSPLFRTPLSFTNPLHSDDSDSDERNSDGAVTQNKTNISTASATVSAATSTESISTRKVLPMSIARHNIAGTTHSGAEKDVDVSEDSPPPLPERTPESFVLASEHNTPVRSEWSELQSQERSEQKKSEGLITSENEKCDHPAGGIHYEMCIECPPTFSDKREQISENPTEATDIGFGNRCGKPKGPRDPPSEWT

Row | Structure (SMILES) | IC50 [1] | IC50 [2] | IC50 [3] | IC50 [4] | IC50 [5] | IC50 [6] | IC50 [7] | IC50 [8] | IC50 [9] | IC50 [10]
1 | O=C(Nc1ccc(-n2ccnc2)cc1)C(c1ccccc1)S(=O)(=O)O (stereo not given) | > 100 µM | > 100 µM | > 100 µM | > 100 µM | > 100 µM | > 100 µM | > 100 µM | > 100 µM | > 100 µM | > 100 µM
2 | Cc1c(Br)cc(NC(=O)C(c2ccccc2)S(=O)(=O)O)cc1Br (stereo not given) | > 200 µM | > 200 µM | > 200 µM | > 200 µM | > 200 µM | > 200 µM | > 200 µM | > 200 µM | > 200 µM | 
3 | O=C(Nc1ccc(OCc2ccccc2)c(Cl)c1)C(c1ccccc1)S(=O)(=O)O (stereo not given) |  | > 200 µM | > 200 µM | > 200 µM | > 200 µM | > 200 µM |  |  | > 200 µM | 
4 | O=C(Nc1cc(C(F)(F)F)cc(C(F)(F)F)c1)C(c1ccccc1)S(=O)(=O)O (stereo not given) | > 200 µM | > 200 µM | > 200 µM | > 200 µM | > 200 µM | > 200 µM | 76 µM | > 200 µM | > 200 µM | 66.9 µM
5 | O=C(Nc1nc2ccc([N+](=O)[O-])cc2s1)C(c1ccccc1)S(=O)(=O)O (stereo not given) | > 100 µM | > 100 µM | > 100 µM | > 100 µM | > 100 µM | > 100 µM | > 100 µM | > 100 µM | > 100 µM | > 100 µM
